target: HIV-1 protease (Human immunodeficiency virus, UniProt O90783); experiment: Inhibition Assay
Source text: Inhibition assay using HIV protease and Sulfonamide compounds.

Chain of HIV-1 protease (O90783 whole entry): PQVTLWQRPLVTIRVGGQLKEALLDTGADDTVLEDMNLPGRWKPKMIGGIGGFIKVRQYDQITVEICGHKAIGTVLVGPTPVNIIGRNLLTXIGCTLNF

Q: With `CNC(=O)CCC(=O)N[C@@H](Cc1ccccc1)[C@H](O)CN(C[C@@H](C)O)S(=O)(=O)c1ccco1` [CARB-KB49] as the compound, how does the Ki read?
A: 540 nM

Q: With `COc1cccc(S(=O)(=O)N(CC2CCCO2)C[C@@H](O)[C@H](Cc2ccccc2)NC(=O)c2ccnc(OC)c2)c1` (stereo partly specified) [CARB-AD08] as the compound, how does the Ki read?
A: 110 nM

Q: `CC(=N[C@H]1c2ccccc2C[C@H]1O)[C@@H](Cc1ccccc1)C[C@H](O)CN1CCN(Cc2cccnc2)C[C@H]1C(=O)NC(C)(C)C` [IDV] was tested. Which Ki did it give?
A: 0.18 nM

Q: `COc1cc(C(=O)N[C@@H](Cc2ccccc2)[C@H](O)CN(C[C@H]2CCCO2)S(=O)(=O)c2cn(C)cn2)ccn1` [CARB-AC97] was tested. Which Ki did it give?
A: 910 nM

Q: `CNC(=O)CCC(=O)N[C@@H](Cc1ccccc1)[C@H](O)CN(C[C@@H](C)O)S(=O)(=O)c1cccc(OC)c1` [CARB-KB32] was tested. Which Ki did it give?
A: 760 nM

Q: For `C[C@@H](O)CN(C[C@@H](O)[C@H](Cc1ccccc1)NC(=O)CC1C=CCC1)S(=O)(=O)c1ccco1` (stereo partly specified) [CARB-KB51], which Ki is on record?
A: 260 nM

From BindingDB's records for doi:10.1111/j.1747-0285.2007.00514.x (University of Maryland, 2007)
